# Legend:
# [1] = biological target: T1, MelB of E. coli (MelBEc) (Escherichia coli, UniProt P02921); assay: Trp to D2G FRET, reversed by melibiose, in detergent extract; format: cell-based
# [2] = biological target: LeuT (leucine transporter) (Aquifex aeolicus, UniProt O67854); assay: radioligand binding by scintillation proximity assay
# [3] = biological target: T1, MelB of E. coli (MelBEc); assay: melibiose reversal of Trp to D2G FRET in detergent extract; format: cell-based
# T1 sequence (P02921 2-473): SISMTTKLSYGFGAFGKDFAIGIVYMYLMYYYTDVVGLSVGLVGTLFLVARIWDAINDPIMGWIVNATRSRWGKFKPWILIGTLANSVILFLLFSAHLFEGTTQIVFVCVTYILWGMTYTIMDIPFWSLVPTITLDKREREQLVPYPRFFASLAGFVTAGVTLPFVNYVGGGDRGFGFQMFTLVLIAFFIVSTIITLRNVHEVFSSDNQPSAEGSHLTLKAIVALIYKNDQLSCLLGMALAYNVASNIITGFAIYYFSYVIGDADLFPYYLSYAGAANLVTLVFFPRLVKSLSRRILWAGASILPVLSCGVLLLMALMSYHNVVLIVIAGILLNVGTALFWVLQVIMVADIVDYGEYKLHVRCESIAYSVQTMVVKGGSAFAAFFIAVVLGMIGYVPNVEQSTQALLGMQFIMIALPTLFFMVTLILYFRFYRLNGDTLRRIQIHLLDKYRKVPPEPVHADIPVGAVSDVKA
smiles,measurement,setting,value
"CN(C)c1cccc2c(S(=O)(=O)NCCS[C@@H]3O[C@H](CO)[C@H](O)[C@H](O)[C@H]3O)cccc12 [D2G, dansyl-2-galactoside]","Trp to D2G FRET, reversed by melibiose, in detergent extract",[1],Melibiose reversal of Trp to dansyl-2-galactoside (D^2G) FRET.
CC(C)C[C@H](N)C(=O)O [leucine],radioligand binding by scintillation proximity assay (SPA),[2],measuring the ability to bind a radio-labelled ligand ([^3H]-leucine) via scintillation proximity assay (SPA)
OC[C@H]1O[C@H](OC[C@H]2OC(O)[C@H](O)[C@@H](O)[C@@H]2O)[C@H](O)[C@@H](O)[C@H]1O (stereo partly drawn) [melibiose],melibiose reversal of Trp to D2G FRET in detergent extract,[3],"MelBEc in PSE-C11 maintained the melibiose binding, which is similar to that observed for the protein in MNG-3"

# — publication PMC4906958 (Journal of the American Chemical Society, 2016)
